#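 A five-concentration, 48-hour dose response in 96-well plates underlies each endpoint, interpolated linearly between surrounding concentrations. TGI marks complete inhibition of growth.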
# Key:
# Assay in all cases: DTP human tumour cell line panel, 48 h
# [1] = system: HS 578T breast
# [2] = system: TK-10 renal
# [3] = system: NCI-H226 lung
# [4] = system: MOLT-4 leukemia
# [5] = system: MDA-N
# [6] = system: NCI-H23 lung
# [7] = system: SF-539 CNS
# [8] = system: DU-145 prostate
# [9] = system: OVCAR-8 ovarian
# [10] = system: NCI-H460 lung
# [11] = system: OVCAR-5 ovarian
# [12] = system: SNB-75 CNS
# [13] = system: MDA-MB-231 breast
# [14] = system: M14 melanoma
# [15] = system: PC-3 prostate
# [16] = system: HCT-116 colon
# [17] = system: SK-MEL-2 melanoma
# [18] = system: SR leukemia
# [19] = system: SW-620 colon
# [20] = system: EKVX NSCLC
# [21] = system: RPMI-8226 leukemia
# [22] = system: SK-MEL-5 melanoma
# [23] = system: UACC-62 melanoma
# [24] = system: HCT-15 colon
# [25] = system: SF-295 CNS
# [26] = system: UACC-257 melanoma
# [27] = system: LOX IMVI melanoma
# [28] = system: SK-MEL-28 melanoma
# [29] = system: MALME-3M melanoma
# [30] = system: K-562 leukemia
# [31] = system: SF-268 CNS
# [32] = system: NCI/ADR-RES ovarian
# [33] = system: A549 NSCLC
# [34] = system: IGROV1 ovarian
# [35] = system: OVCAR-3 ovarian
# [36] = system: BT-549 breast
# [37] = system: CCRF-CEM leukemia
# [38] = system: RXF 393 renal
# [39] = system: COLO 205 colon
# [40] = system: HL-60(TB) leukemia
# [41] = system: UO-31 renal
# [42] = system: SNB-19 CNS
# [43] = system: MDA-MB-435
# [44] = system: KM12 colon
# [45] = system: SN12C renal
# [46] = system: NCI-H522 lung
# [47] = system: HT29 colon
# [48] = system: SK-OV-3 ovarian
# [49] = system: 786-0 renal
# [50] = system: ACHN renal
# [51] = system: U251 CNS
# [52] = system: A498 renal
# [53] = system: CAKI-1 renal
# [54] = system: MCF7 breast
# [55] = system: HOP-92 NSCLC
# [56] = system: HOP-62 NSCLC
# [57] = system: OVCAR-4 ovarian
# [58] = system: HCC-2998 colon
smiles,measurement,setting,value
CCOC(=O)Cc1cc(=O)oc2cc(O)ccc12,TGI,[1],> 100 µM
same,TGI,[2],> 100 µM
same,TGI,[3],> 100 µM
same,TGI,[4],> 100 µM
same,TGI,[5],> 100 µM
same,TGI,[6],> 100 µM
same,TGI,[7],> 100 µM
same,TGI,[8],> 100 µM
same,TGI,[9],> 100 µM
same,TGI,[10],> 100 µM
same,TGI,[11],> 100 µM
same,TGI,[12],> 100 µM
same,TGI,[13],> 100 µM
same,TGI,[14],> 100 µM
same,TGI,[15],> 100 µM
same,TGI,[16],> 100 µM
same,TGI,[17],> 100 µM
same,TGI,[18],> 100 µM
same,TGI,[19],> 100 µM
same,TGI,[20],> 100 µM
same,TGI,[21],> 100 µM
same,TGI,[22],> 100 µM
same,TGI,[23],> 100 µM
same,TGI,[24],> 100 µM
same,TGI,[25],> 100 µM
same,TGI,[26],> 100 µM
same,TGI,[27],> 100 µM
same,TGI,[28],> 100 µM
same,TGI,[29],> 100 µM
same,TGI,[30],> 100 µM
same,TGI,[31],> 100 µM
same,TGI,[32],> 100 µM
same,TGI,[33],> 100 µM
same,TGI,[34],> 100 µM
same,TGI,[35],> 100 µM
same,TGI,[36],> 100 µM
same,TGI,[37],> 100 µM
same,TGI,[38],> 100 µM
same,TGI,[39],> 100 µM
same,TGI,[40],> 100 µM
same,TGI,[41],> 100 µM
same,TGI,[42],> 100 µM
same,TGI,[43],> 100 µM
same,TGI,[44],> 100 µM
same,TGI,[45],> 100 µM
same,TGI,[46],> 100 µM
same,TGI,[47],> 100 µM
same,TGI,[48],> 100 µM
same,TGI,[49],> 100 µM
same,TGI,[50],> 100 µM
same,TGI,[51],> 100 µM
same,TGI,[52],> 100 µM
same,TGI,[53],> 100 µM
O=C1OC(c2ccc(O)c(F)c2)(c2ccc(O)c(F)c2)c2cccc3cccc1c23,TGI,[54],> 25 µM
same,TGI,[1],> 25 µM
same,TGI,[2],> 25 µM
same,TGI,[3],> 25 µM
same,TGI,[4],> 25 µM
same,TGI,[5],> 25 µM
same,TGI,[6],> 25 µM
same,TGI,[7],> 25 µM
same,TGI,[8],> 25 µM
same,TGI,[9],> 25 µM
same,TGI,[10],> 25 µM
same,TGI,[55],> 25 µM
same,TGI,[11],> 25 µM
same,TGI,[13],> 25 µM
same,TGI,[14],> 25 µM
same,TGI,[15],> 25 µM
same,TGI,[16],> 25 µM
same,TGI,[17],> 25 µM
same,TGI,[18],> 25 µM
same,TGI,[19],> 25 µM
same,TGI,[20],19.4 µM
same,TGI,[21],> 25 µM
same,TGI,[22],> 25 µM
same,TGI,[23],> 25 µM
same,TGI,[24],> 25 µM
same,TGI,[25],> 25 µM
same,TGI,[26],> 25 µM
same,TGI,[27],> 25 µM
same,TGI,[28],> 25 µM
same,TGI,[29],> 25 µM
same,TGI,[30],> 25 µM
same,TGI,[31],> 25 µM
same,TGI,[32],> 25 µM
same,TGI,[33],> 25 µM
same,TGI,[34],> 25 µM
same,TGI,[56],> 25 µM
same,TGI,[35],> 25 µM
same,TGI,[37],> 25 µM
same,TGI,[38],> 25 µM
same,TGI,[39],> 25 µM
same,TGI,[57],0.193 µM
same,TGI,[40],18.9 µM
same,TGI,[41],> 25 µM
same,TGI,[42],> 25 µM
same,TGI,[43],> 25 µM
same,TGI,[44],> 25 µM
same,TGI,[45],> 25 µM
same,TGI,[47],> 25 µM
same,TGI,[48],> 25 µM
same,TGI,[50],> 25 µM
same,TGI,[51],> 25 µM
same,TGI,[52],> 25 µM
same,TGI,[53],10.1 µM
CC(=O)OC1COC(n2c3ccccc3c3ccc4c5ccccc5[nH]c4c32)C(OC(C)=O)C1OC(C)=O (centres undefined),TGI,[4],> 100 µM
same,TGI,[5],> 100 µM
same,TGI,[6],> 100 µM
same,TGI,[10],57.6 µM
same,TGI,[55],87.3 µM
same,TGI,[11],> 100 µM
same,TGI,[12],33.2 µM
same,TGI,[15],96.5 µM
same,TGI,[16],> 100 µM
same,TGI,[17],> 100 µM
same,TGI,[19],> 100 µM
same,TGI,[21],> 100 µM
same,TGI,[22],> 100 µM
same,TGI,[23],> 100 µM
same,TGI,[24],> 100 µM
same,TGI,[25],33.3 µM
same,TGI,[58],> 100 µM
same,TGI,[26],> 100 µM
same,TGI,[28],> 100 µM
same,TGI,[30],82.4 µM
same,TGI,[33],> 100 µM
same,TGI,[34],30.8 µM
same,TGI,[56],53.3 µM
same,TGI,[35],> 100 µM
same,TGI,[36],> 100 µM
same,TGI,[37],> 100 µM
same,TGI,[39],> 100 µM
same,TGI,[57],> 100 µM
same,TGI,[41],> 100 µM
same,TGI,[42],> 100 µM
same,TGI,[43],> 100 µM
same,TGI,[44],37.9 µM
same,TGI,[46],44.6 µM
same,TGI,[47],62.8 µM
same,TGI,[48],52.1 µM
same,TGI,[51],74.2 µM
same,TGI,[52],77.7 µM
same,TGI,[53],65.9 µM

# From PubChem BioAssay (NCI)
